Experimental data as given in PMC9820430, “New Affordable Methods for Large-Scale Isolation of Major Olive Secoiridoids and Systematic Comparative Study of Their Antiproliferative/Cytotoxic Effect on Multiple Cancer Cell Lines of Different Cancer Origins” (International Journal of Molecular Sciences, 2022).
Read-outs that look alike come from different tables or passages of the source.

Columns and labels:
Assay in all cases: ATP-based luminescence cell viability assay (ViaLight), 72 h
Set-up in all cases: species or system human
WJ-MSC = conditions: Homo sapiens; WJ-MSC (mesenchymal cells); 72 h treatment; read-out: EC50 Values of Olive Oil Polyphenols
Experimental: The antiproliferative/cytotoxic effects of the selected OOPs on each cell line were assessed by measuring the cellular ATP levels after 72 h treatments using an ATP-based luminescence assay [73]. […] The EC50 values were calculated by nonlinear regression (curve fit) using a sigmoidal dose–response equation (Figure 2A and Figure S2).
Briefly, after the treatment with OOPs, the adapted medium was removed from the dish wells and the cells were washed twice with medium without FBS. Then, the C-lysis (LT27-076) was diluted in PBS (1:2) and a volume of 50 μL was added to each well. Cells were incubated with C-lysis for at least 10 min. […] Cell viability was quantified by measuring luminescence using a multi-mode microplate reader Safire^2 Tecan (software Magellan V6.00 STD.2PC WIN.20000/XP).

AGS = conditions: Homo sapiens, 72 h, 72 h treatment, read-out: EC50 Values of Olive Oil Polyphenols
Experimental: (§1) The antiproliferative/cytotoxic effects of the selected OOPs on each cell line were assessed by measuring the cellular ATP levels after 72 h treatments using an ATP-based luminescence assay. This assay, initially developed as a tumor chemosensitivity assay, has shown considerable promise as a general in vitro toxicity assay due to its high sensitivity that allows the detection of a small number of cells. Consequently, it can be applied to both cancer cell lines and primary tissue cells. […] The EC50 values were calculated by nonlinear regression (curve fit) using a sigmoidal dose–response equation (Figure 2A and Figure S2).
(§2) The OOPs tested in this study were first dissolved in an appropriate DMSO volume such as to prepare a final stock solution of 50 mM, which was further used to prepare various compound concentrations in DMSO-based solutions. The final DMSO concentration in the cell culture was maintained constant in all treated groups of any given experiment and never exceeded the value of 0.2% (v/v). For the treatment experiments, cells were plated in 96-well culture plates, in 100 μL of complete medium at a seeding density of 5000–10,000 cells/well—depending on cells’ size and doubling time—and were allowed to adhere overnight (~16 h). The next day, 150 μL of complete medium was added to each well and the cells were treated with various concentrations of OOPs. Each concentration was tested in triplicate and was repeated 2–3 times. To prepare the final concentration solutions, 0.5 μL of a 500× stock of each tested compound in DMSO was added directly into each well in a final volume of 250 μL culture medium and was gently mixed by pipetting. Control wells were prepared under the same experimental conditions by adding only DMSO at a final concentration of 0.2% (v/v). Compounds were not renewed during the entire period of cell exposure. All cells were cultured at 37 °C in a 5% (v/v) CO2 for 24, 48 or 72 h.
(§3) Briefly, after the treatment with OOPs, the adapted medium was removed from the dish wells and the cells were washed twice with medium without FBS. Then, the C-lysis (LT27-076) was diluted in PBS (1:2) and a volume of 50 μL was added to each well. Cells were incubated with C-lysis for at least 10 min. Finally, an equal volume of lysed cells from each well and ATP monitoring reagent (AMR; LT27-212) was transferred to the wells of a white-walled illuminometer plate (Greiner bio-one; 655074). Cell viability was quantified by measuring luminescence using a multi-mode microplate reader Safire^2 Tecan (software Magellan V6.00 STD.2PC WIN.20000/XP).

PANC-1 = conditions: Homo sapiens, PANC-1, 72 h, 72 h treatment, read-out: EC50 Values of Olive Oil Polyphenols
Experimental: as §1, §2, §3

HaCaT = HaCaT (immortal keratinocytes), 72 h treatment, read-out: EC50 Values of Olive Oil Polyphenols
Experimental: as §1, §2, §3

H1437 = conditions: for Selectivity index SI (MRC-5): EC50 MRC-5 / EC50 H1437; for EC50: Homo sapiens, NCI-H1437, 72 h, H1437, 72 h treatment, read-out: EC50 Values of Olive Oil Polyphenols
Experimental: as §1, §2, §3

MKN-45 = conditions: Homo sapiens, MKN-45, 72 h, 72 h treatment, read-out: EC50 Values of Olive Oil Polyphenols
Experimental: as §1, §2, §3

MRC-5 = conditions: Homo sapiens, MRC5; MRC-5 (non cancer, lung); 72 h treatment; read-out: EC50 Values of Olive Oil Polyphenols
Experimental: as §1, §2, §3

Huh-7 = conditions: Homo sapiens, Huh-7, 72 h, 72 h treatment, read-out: EC50 Values of Olive Oil Polyphenols
Experimental: as §1, §2, §3

MCF 10A = conditions: Homo sapiens; MCF 10A (non-tumorigenic epithelial); 72 h treatment; read-out: EC50 Values of Olive Oil Polyphenols
Experimental: as §1, §2, §3

A2058 = conditions: for Selectivity index SI (HaCaT): EC50 HaCaT / EC50 A2058; for Selectivity index SI (NHDF): EC50 NHDF / EC50 A2058; for EC50: Homo sapiens, A2058, 72 h, A2058, 72 h treatment, read-out: EC50 Values of Olive Oil Polyphenols
Experimental: as §1, §2, §3

HT-29 = conditions: Homo sapiens, HT-29, 72 h, 72 h treatment, read-out: EC50 Values of Olive Oil Polyphenols
Experimental: as §1, §2, §3

Hela = conditions: Homo sapiens, HeLa, 72 h, 72 h treatment, read-out: EC50 Values of Olive Oil Polyphenols
Experimental: as §1, §2, §3

MCF-7 = conditions: 72 h treatment, read-out: EC50 Values of Olive Oil Polyphenols
Experimental: as §1, §2, §3

ME-180 = conditions: Homo sapiens, ME-180, 72 h, 72 h treatment, read-out: EC50 Values of Olive Oil Polyphenols
Experimental: as §1, §2, §3

MDA-MB 231 = conditions: for Selectivity index SI (MCF 10A): EC50 MCF 10A / EC50 MDA-MB 231; for EC50: MDA-MB 231, 72 h treatment, read-out: EC50 Values of Olive Oil Polyphenols
Experimental: as §1, §2, §3

HepG-2 = conditions: Homo sapiens, HepG2, 72 h, 72 h treatment, read-out: EC50 Values of Olive Oil Polyphenols
Experimental: as §1, §2, §3

Caco-2 = conditions: 72 h treatment, read-out: EC50 Values of Olive Oil Polyphenols
Experimental: as §1, §2, §3

SK-MEL-28 = conditions: for Selectivity index SI (HaCaT): EC50 HaCaT / EC50 SK-MEL-28; for Selectivity index SI (NHDF): EC50 NHDF / EC50 SK-MEL-28; for EC50: SK-MEL-28, 72 h treatment, read-out: EC50 Values of Olive Oil Polyphenols
Experimental: as §1, §2, §3

H1299 = conditions: for Selectivity index SI (MRC-5): EC50 MRC-5 / EC50 H1299; for EC50: Homo sapiens, NCI-H1299, H1299, 72 h treatment, read-out: EC50 Values of Olive Oil Polyphenols
Experimental: as §1, §2, §3

SK-BR-3 = conditions: for Selectivity index SI (MCF 10A): EC50 MCF 10A / EC50 SK-BR-3; for EC50: Homo sapiens, SK-BR-3, 72 h, SK-BR-3, 72 h treatment, read-out: EC50 Values of Olive Oil Polyphenols
Experimental: as §1, §2, §3

Structure (SMILES) | EC50 (WJ-MSC) | EC50 (AGS) | EC50 (PANC-1) | EC50 (HaCaT; Homo sapiens, HaCaT, 72 h) | Selectivity index SI (MRC-5) (H1437) | EC50 (H1437) | EC50 (MKN-45) | EC50 (MRC-5) | EC50 (Huh-7) | EC50 (MCF 10A) | EC50 (A2058) | EC50 (HT-29) | EC50 (Hela) | EC50 (MCF-7; Homo sapiens, MCF7, 72 h) | EC50 (ME-180) | EC50 (MDA-MB 231; Homo sapiens, MDA-MB-231, 72 h) | EC50 (HepG-2) | EC50 (Caco-2; Homo sapiens, Caco-2, 72 h) | EC50 (SK-MEL-28; Homo sapiens, SK-MEL-28, 72 h) | EC50 (SK-BR-3) | further results
COC(=O)C1=COC(C)[C@@H](C=O)[C@@H]1CC(=O)OCCc1ccc(O)c(O)c1 (mixture of isomers) [3a,b, oleuropein aglycone] | 28.7 ± 0.3 µM | 35.9 ± 1.4 µM | 19.1 ± 0.6 µM | 36.6 µM | 0.7 | 11.9 ± 0.6 µM | 16.4 ± 1.6 µM | 8.6 ± 0.4 µM | 13 ± 0.1 µM | 9.5 ± 0.4 µM | 37.2 ± 0.8 µM | 50.1 ± 1.5 µM | 27.6 ± 0.3 µM | 32.2 ± 1.1 µM | 25.5 ± 0.5 µM | 24.5 µM | 17.7 ± 0.5 µM | 24.5 ± 0.9 µM | 22.2 µM | 17.7 ± 1.4 µM | Selectivity index SI (HaCaT) (A2058): 1.0; Selectivity index SI (NHDF) (A2058): 1.1; Selectivity index SI (MCF 10A) (MDA-MB 231): 0.4; EC50 (MDA-MB 231): 25.4 ± 0.8 µM; Selectivity index SI (HaCaT) (SK-MEL-28): 2.4; Selectivity index SI (NHDF) (SK-MEL-28): 2.8; EC50 (SK-MEL-28): 15.1 ± 0.9 µM; Selectivity index SI (MRC-5) (H1299): 0.4; EC50 (H1299): 24.1 ± 0.9 µM; Selectivity index SI (MCF 10A) (SK-BR-3): 0.5
C/C=C(/C=O)[C@@H](CC=O)CC(=O)OCCc1ccc(O)cc1 [compound 1, oleocanthal] | – | 18.3 ± 1 µM | 14.9 ± 0.9 µM | 19.3 ± 0.3 µM | – | 26.5 ± 1.1 µM | 10.2 ± 0.4 µM | 2 ± 0.1 µM | 20.2 ± 1.5 µM | 7 ± 0.3 µM | 18.4 ± 0.4 µM | 26.3 ± 2 µM | 44.6 ± 0.4 µM | > 25 µM | 9.1 ± 0.3 µM | 10.4 ± 0.8 µM | 40 ± 5.3 µM | 33.4 µM | 10.4 ± 1.1 µM | 13 ± 0.6 µM | EC50 (MCF-7): 24.6 ± 2.6 µM; EC50 (Caco-2): 34.3 ± 4.1 µM
C/C=C(/C=O)[C@@H](CC=O)CC(=O)OCCc1ccc(O)c(O)c1 [compound 2, oleacein] | 28.2 ± 11.1 µM | 46.2 ± 2.3 µM | 30.9 ± 0.2 µM | > 50 µM | 0.1 | 74.6 ± 2.1 µM | 25 ± 2.1 µM | 7 ± 0.9 µM | 49.6 ± 0.5 µM | 24.7 ± 2.7 µM | 55.7 ± 3.4 µM | > 100 µM | 46.3 ± 4.9 µM | > 100 µM | 25.2 ± 0.2 µM | 37.7 ± 2.2 µM | 82.8 ± 0.7 µM | > 100 µM | 33.4 ± 2.4 µM | 45.6 ± 2.2 µM | EC50 (HaCaT): 51.8 ± 4.2 µM; Selectivity index SI (HaCaT) (A2058): 0.9; Selectivity index SI (NHDF) (A2058): 0.9; Selectivity index SI (MCF 10A) (MDA-MB 231): 0.7; Selectivity index SI (HaCaT) (SK-MEL-28): 1.6; Selectivity index SI (NHDF) (SK-MEL-28): 1.5; Selectivity index SI (MRC-5) (H1299): 0.1; EC50 (H1299): 61.7 ± 1.3 µM; Selectivity index SI (MCF 10A) (SK-BR-3): 0.5
